US8389501B2, “Anticancer compound” (priority 2011, dated 2013)
Where two headings read alike, the source gives them in different places.

What was measured:
[1] = tested on: human lung cancer cell line (NCI-H460); assay: Sulforhodamine B (SRB) growth inhibition assay; assay type: cell-based; conditions: for GI50: Homo sapiens
Experimental: The sulforhodamine B (SRB) protein-staining assay was employed for measurement of in vitro growth inhibition and cytotoxicity (21) The appropriate cell density (cells/well) of NCI-H460 cells (1×10^4) was added in 96-well plates. The cell density used was dependent on the doubling time of the cell line leading to the formation of monolayer. After 24 h incubation, different doses of Compounds 1-3 were added and incubated for further 48 h. This was followed by fixation of cells with ice-cold trichloroacetic acid (50 μl, 50%) at room temperature for 30 min. The plates were carefully washed five times with distilled water, and left for overnight drying in air. Sulforhodamine B dye (100 μl, 0.4% in 1% acetic acid) was introduced in each well and after 30 min residual dye was removed using acetic acid (1%) and air-dried overnight. The bound SRB dye was solubilized in Tris-base solution (100 μl, 10 mM) with gentle shaking on a plate-shaker for 5 min prior to optical density (OD) measurements at 545 nm in a plate reader. Drug concentrations causing growth inhibition (GI50) of 50% cells were calculated from dose response curves and total growth inhibition of Compound 2 was also evaluated.

[2] = tested on: PHA-activated T-cell proliferation; assay: PHA-activated T-cell proliferation assay (3H-thymidine incorporation); assay type: cell-based, human; conditions: for IC50: Homo sapiens, T-cell, PHA 5 μg/mL, 72 hours incubation; for effect on T-cell proliferation (in words): PHA-activated
Experimental: (§1) FIG. 2: Effect of Compounds 1-3 on phytohemagglutinin (PHA) T-cell proliferation and production. (2A) The bar graph represents effects of various concentrations of the test Compounds 1-3 after 72 h incubation with peripheral blood mononuclear cells at 37° C. Effect of compounds on T-cell proliferation response is compared with non-proliferated […] cells. The bar graph (2B) represents effects of various concentrations of the test Compounds 1-3 on production of IL-2 compared with (+ve) and without (−ve) PHA induced IL-2 production. Each bar represents the mean value of triplicate reading±SD.
The T-cell proliferation assay was performed as described by Nielson et al. (19). In this assay, isolated lymphocytes were stimulated by adding the phytohemagglutinin (PHA) in culture. The rate of proliferation and survival was measured by radiolabelled thymidine incorporation method. The lymphocytes were isolated as described by Boyum (20). A 50 μL of cell suspension (10^6/mL) was added to each well of a 96-well round bottom tissue culture plate. 50 μL of PHA was added in each well from the working solution (20 μg/mL) to have final concentration 5 μg/mL. The final volume was adjusted to 200 μL in each well by adding complete RPMI media. The plates were incubated at 37° C. for 72 hours (90% humidity, 5% CO2/air). Methyl-^3H thymidine (Amersham Pharmacia Biotech) 0.5 μCi was added in each well and incubated for further 18 hours. Cells were harvested on a filter mat (Type G-7) using cell harvester (INOTECH IH-280, Switzerland) and the radioactivity (CPM) was measured using a β-scintillation counter (LS 6500, Beckman Coulter, USA). (FIG. 2A)

[3] = tested on: isolated polymorphoneutrophils (PMNs); assay: Oxidative burst, luminol-enhanced chemiluminescence, isolated PMNs; assay type: cell-based, human; conditions: for IC50: Homo sapiens, isolated PMNs, opsonized zymosan-A, luminol
Experimental: (§2) In addition to that, effects of these compounds on T-cells proliferation were also evaluated; investigating their (Compounds 2 and 3) ability to modulate PHA activated T-cell proliferation response and production of IL-2 cytokine.
(§3) Heparinized blood was obtained by vein puncture aseptically from healthy volunteers (25-38 years age). The buffy coat containing PMNs was collected by dextran sedimentation and the cells were isolated after the LSM density gradient centrifugation from the tube base. Cells were washed twice and suspended in Hank's Balance Salt Solution (Ca^2+ and Mg^2+ free) (HBSS^−−), pH 7.4. Neutrophils were purified from RBCs contamination using hypotonic solution. Cells were adjusted to their required concentration using Hank's Balance Salt Solution containing Ca^2+ and Mg^2+ (HBSS^++).
(§4) Luminol-enhanced chemiluminescence assay was performed as described by Helfand et al. (17), and Haklar et al. (18) with some modifications. Briefly, 25 μL diluted whole blood (1:200 dilution in sterile HBSS^++) or 25 μL of PMNs (1×10^6) cells were incubated with 25 μL of serially diluted compounds with concentration ranges between 3.2-50 mg/mL. Tests were performed in white 96-well plates, which were incubated at 37° C. for […] in the thermostated chamber of the luminometer. Opsonized zymosan-A, 25 μL, followed by 25 μL luminol (7×10^−5 M) along with HBSS^++ was added to each well to obtain a 100 μL volume/well. Wells received HBSS^++, and cells but no compounds were used as a negative control. Chemiluminescence peaks were recorded with the Luminometer. Results were monitored as chemiluminescence relative light units (RLU) with peak and total integral values.

[4] = tested on: IL-2 production; assay: IL-2 cytokine production by PHA activated peripheral blood mononuclear cells (ELISA); assay type: cell-based, human
Experimental: as §1
IL-2 cytokine was produce from peripheral blood mononuclear cells (PBMC). IL-2 cytokine production by PHA activated cells in the presence or absence of test compounds was studied by ELISA using the human cytokine kit (Diaclone, Besancon Cedex France). Briefly, freshly prepared mononuclear cells (10^5/well) were cultured in 96-well microtiter flat bottom plate in the presence or absence of 5 μg/mL PHA. Four different concentrations (10.33-331.13 μM/mL) of compounds, along with PHA, were used in this assay. The culture plate was incubated at 37° C. for 18 h. Then the supernatant was collected and analyzed for IL-2 cytokine production following kit manufacturer instructions.

[5] = tested on: whole blood phagocytes; assay: Oxidative burst, luminol-enhanced chemiluminescence, whole blood; assay type: cell-based, human; conditions: for IC50: Homo sapiens, diluted whole blood, opsonized zymosan-A, luminol
Experimental: as §2, §3, §4

[6] = Homo sapiens, PBMC, 18 h, PHA-activated PBMC, 18 h, ELISA, read-out: IC50 (μM) IL-2

`C[C@]12CCC(=O)C[C@@H]1CC[C@@H]1[C@@H]2CC[C@@]2(C)[C@H]1CC[C@]2(C)O` [Compound 3, 17β-hydroxy-17α-methyl-5α-androstan-3-one] was tested, and the “anticancer activity against NCI-H460 cell line (in words)” value (shortened to “anticancer activity”) [1] was “non-active”, the GI50 ([1]; NCI-H460, 48 h, SRB) was greater than 100 µM and the “growth inhibition of cancer cells at 100 μM (in words)” value ([1]; NCI-H460, 100 μM) was “not able to inhibit considerable growth of cancer cells”. For the same compound, the “TGI (μM)” value ([1]; NCI-H460, 48 h, SRB) was “ND (ND: Values could not be determined indicates <50% inhibition of cell growth at maximum dose (100 μM) tested.)”, the IC50 [2] was 42.1 µM and the “effect on T-cell proliferation (in words)” value [2] was “moderate inhibitory activity”. The “effect on reactive oxygen species (ROS) production, isolated neutrophils (in words)” value [3] was “did not result in any significant effect”, the IC50 [3] was greater than 164 µM and the IC50 [4, 6] was 49.3 ± 1.32 µM. For the same compound, the “effect on IL-2 production (in words)” value ([4]; PHA-activated PBMC) was “moderate inhibitory activity”, the IC50 ([4]; PHA-activated PBMC, 18 h, ELISA, read-out: IC50 (μM) IL-2) was 49.3 ± 1.32 µM and the “effect on reactive oxygen species (ROS) production, whole blood phagocytes (in words)” value [5] was “did not result in any significant effect”. It also gave an IC50 [5] greater than 329 µM.

For `C[C@]12C=CC(=O)C=C1CC[C@@H]1[C@@H]2CC[C@@]2(C)[C@H]1CC[C@]2(C)O` [Compound 1, dianabol, reference compound], the “anticancer activity” value [1] was “showed anticancer activity”, the GI50 ([1]; NCI-H460, 48 h, SRB) was 28.3 ± 2.72 µM and the “TGI (μM)” value ([1]; NCI-H460, 48 h, SRB) was “ND (ND: Values could not be determined indicates <50% inhibition of cell growth at maximum dose (100 μM) tested.)”. The IC50 [2] was greater than 167 µM, the “effect on T-cell proliferation (in words)” value [2] was “did not show any significant effect” and the IC50 [3] was greater than 167 µM. For the same compound, the IC50 [4, 6] was greater than 167 µM, the “effect on IL-2 production (in words)” value ([4]; PHA-activated PBMC) was “did not show any significant effect” and the IC50 [5] was greater than 333 µM.

With `C[C@]12C=CC(=O)C[C@@H]1CC[C@@H]1[C@@H]2CC[C@@]2(C)[C@H]1CC[C@]2(C)O` [Compound 2, 17β-hydroxy-17α-methyl-5α-androst-1-en-3-one] the “anticancer activity” value [1] was “showed anticancer activity”, the GI50 ([1]; NCI-H460, 48 h, SRB) was 22.5 ± 4.15 µM and the “TGI” value ([1]; NCI-H460, 48 h, SRB) was 60 ± 9.2 µM. The IC50 [2] was less than 10.3 µM, the “effect on reactive oxygen species (ROS) production, isolated neutrophils (in words)” value [3] was “did not result in any significant effect” and the IC50 [3] was greater than 166 µM. For the same compound, the IC50 [4, 6] was 16.9 ± 1.32 µM, the IC50 ([4]; Homo sapiens, PBMC, FIG. 2, read-out: IL-2 production IC50 (unit inferred)) was 16.9 ± 1.32 µM and the “effect on reactive oxygen species (ROS) production, whole blood phagocytes (in words)” value [5] was “did not result in any significant effect”. The IC50 [5] was greater than 331 µM.

Work on `COc1cccc2c1C(=O)c1c(O)c3c(c(O)c1C2=O)C[C@@](O)(C(=O)CO)C[C@@H]3O[C@H]1C[C@H](N)[C@H](O)[C@H](C)O1` [doxorubicin, reference compound] yielded a GI50 ([1]; NCI-H460, 48 h, SRB) of 0.08 ± 0.02 µM.
